Assay results: patent publication US20130115671A1, “ENZYMES FROM CONIDIOBOLUS BREFELDIANUS AND PROCESS FOR PREPARATION THEREOF” (Council of Scientific and Industrial Research, priority 2010, published 2013)
Several values for one entry are separate records, joined by “and”; a condition that tells them apart may be missing. Equal entries are not always repeated. Where two headings read alike, the source gives them in different places. Blank lines part the entries; values can stand above or below the molecule they belong to.

Experiments:
[1] = tested on: protease from Conidiobolus brefeldianus MTCC 5185; assay: Stability of protease in presence of organic solvents at 28° C.; assay type: physicochemical; set-up: key to residual activity of protease, 0 h / residual activity of protease, 12 h: % of initial activity with respective solvent (initial = 100%); conditions: crude protease, 20% (v/v) solvent
Description: This example illustrates the effect of water miscible as well as water immiscible organic solvents on stability of crude protease at 28° C. […] Samples were removed at different time intervals and residual activity was estimated. Sample without organic solvent served as control. Initial activity with respective solvents was taken as 100% (Table 17). […] (Table 17).

[2] = tested on: protease from Conidiobolus brefeldianus MTCC 5185; assay: Stability of protease in presence of organic solvents at 37° C.; assay type: physicochemical; conditions: 20% (v/v) solvent; for Residual Activity (%) of protease, 30 min: pH 7, 30 min; for Residual Activity (%) of protease, 60 min: pH 7, 60 min; for Residual Activity (%) of protease, 120 min: pH 7, 120 min; for Residual Activity (%) of protease, 240 min: pH 7, 240 min; for Residual Activity (%) of protease, 0: crude protease, pH 7, 0 min
Description: This example illustrates the effect of water miscible as well as water immiscible organic solvents on stability of crude protease at 37° C. […] Samples were removed at different time intervals and residual activity was estimated. Sample without organic solvent served as control.

[3] = tested on: protease secreted by Conidiobolus brefeldianus MTCC 5185; assay: Effect of metals on protease activity; assay type: biochemical
[4] = tested on: protease from Conidiobolus brefeldianus MTCC 5185
Description: This example illustrates the stability of the protease in presence of salts. […] Aliquots were removed at regular intervals of 30 min and residual activity was estimated at 50° C., pH 9.

[5] = tested on: protease of Conidiobolus brefeldianus MTCC 5185; assay: Effect of inhibitors on protease activity (PMSF, EDTA, iodoacetate, DMSO); assay type: biochemical
From the text: This example illustrates the effect of inhibitors on protease activity of Conidiobolus brefeldianus MTCC 5185. Following inhibitors were studied: phenylmethylsulfonyl fluoride (PMSF), ethylene-diaminetetraacetic acid (EDTA), iodoacetic acid, and dimeth ylsulphoxide (DMSO). The crude culture filtrate grown as described in example 3 was concentrated by ultra-filtration on PM-10 and YM-3 membranes as described in example 27 and used for inhibition studies. Both the protease preparations were pre-incubated in 100 mM Tris-HCl buffer (pH 8.0) with each inhibitor for 1 h and the residual protease activity was measured at 50° C., pH 9.0. Protease without inhibitor served as control.

[6] = tested on: protease of Conidiobolus brefeldianus MTCC 5185; assay: Effect of inhibitors on protease activity (TPCK, TLCK, Benzamidine); assay type: biochemical; conditions: 5 mM inhibitor, crude protease pre-incubated 30 min, pH 8.0
Description: This example illustrates the effect of inhibitors on protease activity of Conidiobolus brefeldianus MTCC 5185. Following inhibitors were studied: N-tosyl-L-phenylalanine chloromethyl ketone (TPCK), N-tosyl-L-lysine chloromethyl ketone (TLCK), and Benzamidine. Crude protease was pre-incubated with each inhibitor in 100 mM Tris-HCl buffer (pH 8.0) for 30 min and the residual protease activity was measured 50° C., pH 9.0. Protease without inhibitor served as control.

[7] = pre-incubated 1 h, pH 8.0, 20 mM EDTA, 10 mM Iodoacetate, 1 mM PMSF (in DMSO), DMSO
[8] = metal 5 mM in assay mixture, crude protease

Molecule: CC(C)=O [Acetone, acetone]
residual activity of protease, 0 h [1]: 100
residual activity of protease, 5 h [1]: 95.66
residual activity of protease, 12 h [1]: 55.51
Residual Activity (%) of protease, 30 min [2]: 91.66%
Residual Activity (%) of protease, 60 min [2]: 81.10%
Residual Activity (%) of protease, 120 min [2]: 60.57%
Residual Activity (%) of protease, 240 min [2]: 29.53%
Residual Activity (%) of protease, 0 [2]: 100%

Molecule: CC#N [Acetonitrile, acetonitrile]
residual activity of protease, 0 h [1]: 100
residual activity of protease, 5 h [1]: 98.31
residual activity of protease, 12 h [1]: 49.90
Residual Activity (%) of protease, 30 min [2]: 37.19%
Residual Activity (%) of protease, 60 min [2]: 36.40%
Residual Activity (%) of protease, 120 min [2]: 17.52%
Residual Activity (%) of protease, 240 min [2]: 13.45%
Residual Activity (%) of protease, 0 [2]: 100%

Molecule: [Ca+2].[Cl-].[Cl-] [CaCl2, Calcium chloride]
Relative Activity (%) of protease [3]: 118.25%
effect on protease activity [3]: active
Residual Activity (%) of protease at 50° C. ([4]; 10 mM CaCl2, 0.5M NaCl, 0.5M glycine or 15% (NH4)2SO4, 0 min): 100.00%
Residual Activity (%) of protease at 50° C. ([4]; salt concentration as in column head, 30 min): 91.70%
Residual Activity (%) of protease at 50° C. ([4]; salt concentration as in column head, 60 min): 83.17%
Residual Activity (%) of protease at 50° C. ([4]; salt concentration as in column head, 90 min): 70.83%
Residual Activity (%) of protease at 50° C. ([4]; salt concentration as in column head, 120 min): 63.83%
Residual Activity (%) of protease at 50° C. ([4]; salt concentration as in column head, 180 min): 54.65%
Residual Activity (%) of protease at 50° C. ([4]; salt concentration as in column head, 180 min, listed as Calcium chloride): around 55%

residual activity of protease, 0 h [1]: 100
residual activity of protease, 5 h [1]: 98.12
residual activity of protease, 12 h [1]: 54.55
Residual Activity (%) of protease, 30 min [2]: 69.48%
Residual Activity (%) of protease, 60 min [2]: 68.94%
Residual Activity (%) of protease, 120 min [2]: 48.70%
Residual Activity (%) of protease, 240 min [2]: 28.53%
Residual Activity (%) of protease, 0 [2]: 100%
Molecule: C[S+](C)[O-] [DMSO, dimethylsulphoxide]
Inhibition (%) PM-10 Retentate [5, 7]: 3.02%
Inhibition (%) YM-3 Retentate [5, 7]: 1.37%

Molecule: O=C(O)CN(CCN(CC(=O)O)CC(=O)O)CC(=O)O [EDTA, ethylene-diaminetetraacetic acid]
Inhibition (%) PM-10 Retentate [5, 7]: 0.0%
Inhibition (%) YM-3 Retentate [5, 7]: 3.93%

Molecule: O=C(O)CI [Iodoacetate, iodoacetic acid]
Inhibition (%) PM-10 Retentate ([5]; pH 8): 0.0%
Inhibition (%) YM-3 Retentate ([5]; pH 8): 16.54%

residual activity of protease, 0 h [1]: 100
residual activity of protease, 5 h [1]: 100.29
residual activity of protease, 12 h [1]: 57.79
Residual Activity (%) of protease, 30 min [2]: 46.06%
Residual Activity (%) of protease, 60 min [2]: 34.35%
Residual Activity (%) of protease, 120 min [2]: 18.73%
Residual Activity (%) of protease, 240 min [2]: 17.11%
Residual Activity (%) of protease, 0 [2]: 100%
Molecule: CC(C)O [Isopropanol, isopropanol]

Molecule: CO [Methanol, methanol]
residual activity of protease, 0 h [1]: 100
residual activity of protease, 5 h [1]: 100.13
residual activity of protease, 12 h [1]: 52.64
Residual Activity (%) of protease, 30 min [2]: 59.43%
Residual Activity (%) of protease, 60 min [2]: 59.45%
Residual Activity (%) of protease, 120 min [2]: 48.36%
Residual Activity (%) of protease, 240 min [2]: 16.60%
Residual Activity (%) of protease, 0 [2]: 100%

Molecule: O=S(=O)([O-])[O-].[Mg+2] [MgSO4]
Relative Activity (%) of protease [3, 8]: 135.87%

Molecule: [Cl][Mn][Cl] [MnCl2]
Relative Activity (%) of protease [3, 8]: 104.49%

Molecule: O=S(=O)([O-])[O-].[Mn+2] [MnSO4]
Relative Activity (%) of protease [3, 8]: 108.39%

Molecule: [Cl][Ni][Cl] [NiCl2]
Relative Activity (%) of protease [3, 8]: 65.60%

Molecule: O=S(=O)(F)Cc1ccccc1 [PMSF, phenylmethylsulfonyl fluoride]
inhibition of protease ([5]; 1 mM PMSF): completely inhibited
Inhibition (%) PM-10 Retentate [5, 7]: 79.27%
Inhibition (%) YM-3 Retentate [5, 7]: 90.24%

Molecule: [Cl-].[Cl-].[Zn+2] [ZnCl2]
Relative Activity (%) of protease [3, 8]: 60.27%

Molecule: O=S(=O)([O-])[O-].[Zn+2] [ZnSO4]
Relative Activity (%) of protease [3, 8]: 58.03%

Molecule: N-tosyl-L-lysine chloromethyl ketone [TLCK]
Inhibition (%) [6]: 29% and 29.22%

Molecule: N-tosyl-L-phenylalanine chloromethyl ketone [TPCK]
Inhibition (%) [6]: 9% and 9.02%
